Tests used:
Type in all cases: cell-based, human
[1] = system: cleaved caspase-3 and LC3-II in HeLa cells; assay: Western blotting for cell death markers (cleaved caspase 3, LC3-II); settings: 24 h, concentrations centred on IC50
Description: Figure 2 Complexes 1 and 2 are internalised by cancer cells and impact proliferation. (a) Effect of 40 μM 1 or 2 (0–72 h incubation time) on numbers of viable (left) and non-viable (right, data expressed as % total cells, independent of viability) HeLa cells (in triplicate, +/− SD). […] (c) Intracellular Ru levels of HeLa cells treated with 1 or 2 (40 μM, 24 h), as determined by ICP-MS. (d) Ru levels within isolated subcellular fractions of HeLa cells treated with 1 or 2 (40 μM, 24 h). Fractions: C = cytoplasm and cytoskeleton, M = membrane, N = nucleus. Successful fractionation confirmed by immunoblotting (right). All ICP-MS data were normalised to protein content of the corresponding fraction and are the mean of two independent experiments +/− SEM. (e) Epifluorescence microscopy of HeLa cells treated with 1 or 2 (40 μM, 24 h) showing intracellular MLCT emission. Co-staining with nuclear stain DAPI included. Scale bars = 20 μm.
Cells were incubated as stated, washed with cold PBS and lysed in RIPA (radioimmunoprecipitation assay) buffer containing protease inhibitors (10 μg/ml leupeptin, 2 μg/ml pepstatin, 50 μg/ml antipain, 2 μg/ml aprotinin, 20 μg/ml chyprostatin, 2 μg/ml benzamidine, 1 mM phenylmethanesulfonyl fluoride) and phosphatase inhibitors (50 mM NaF, 1 mM Na3VO4 and 20 mM β-glycerophosphate). Aliquots of cell lysates (5–20 μg total protein) were resolved by NuPAGE® 4–12% Bis-Tris gels and LDS-PAGE, transferred onto nitrocellulose membrane and probed with primary antibodies in 5% BSA (bovine serum albumin) solutions. Reactions were visualised with a suitable secondary antibody conjugated with horseradish peroxidase (Thermo). Pierce ECL (Thermo) or WesternSurePREMIUM (Li-Cor) chemiluminescent substrates with X-ray development (Fuji medical film and Optimax 2010 processor) or digital analysis (LiCor C-Digit Blot Scanner) were used to visualise protein expression. Li-Cor Image Studio Lite software was used for densitometry data acquisition.

[2] = system: γH2AX in HeLa cells; assay: γH2AX expression after irradiation (Western blot densitometry); settings: 40 μM 20 h then 6 Gy IR, harvested 1 h after irradiation
Description: Chemotherapeutics are often used in combination with external beam ionising radiation in the treatment of cancers and many drugs that inhibit DNA replication are potent radiosensitizers. To examine the possibility that 1 may function as a radiosensitizer, HeLa cells were pre-treated with 1 for 20 h before irradiation (0–6 Gy ionising irradiation (IR); ^137Cs-γ-rays; dose rate = 0.809 Gy min^−1). After further incubation for 4 h with the complex, the relative impact on cell viability was assessed by clonogenic survival. Complex 2, which achieves its impact on cell proliferation through non-DNA damage-based autophagy, was included in parallel for comparison. […] The formation of γH2AX is an early response to IR-induced DSB generation and may provide an indication of DNA damage levels. […]
Figure 6 [Ru(dppz)2(PIP)]^2+ sensitises human cancer cells to external beam ionising radiation. […] Survival fraction (S. F.) as a result of each treatment was determined by clonogenic assay and is presented as the mean +/− SD of two independent experiments where each experiment was performed in triplicate. […] Cells were harvested 1 h after irradiation and lysates analysed by Western blotting (left). γH2AX levels were measured by densitometry relative to β-actin loading controls and normalised to DMSO + 6 Gy data (right). […]

[3] = system: replication forks in HeLa cells; assay: DNA fibre assay (replication fork progression); settings: for median IdU tract length: 40 μM added during 30 min IdU pulse, mock 6.10 μm
Description: Replication tracks were sequentially pulse-labelled with CldU (red) and IdU (green) and the addition of 1 or 2 during the second (IdU) pulse enabled us to evaluate the immediate effect of each complex on individual replication fork progression in S phase cells (Figs 3a and S12).
DNA fibre assays and immunofluorescent staining were performed as described elsewhere, employing sequential CldU and IdU incubation times of 30 mins each. The second nucleotide (IdU) was incubated in the presence of 1, 2 (40 μM) or a DMSO (0.5%) control. Fibres were visualised with a Leica DMRB microscope with a DFC360FX camera. Lengths of CldU- and IdU-labeled tracts were measured by ImageJ software. Statistical analysis was performed using GraphPad Prism software using unpaired t-test.

[Ru+2].c1ccc(-c2nc3c4cccnc4c4ncccc4c3[nH]2)cc1.c1ccc2nc3c4cccnc4c4ncccc4c3nc2c1.c1ccc2nc3c4cccnc4c4ncccc4c3nc2c1 [Complex 1, [Ru(dppz)2(PIP)]^2+]
generation of apoptosis marker cleaved caspase-3 [1]: no generation of the apoptosis marker cleaved caspase-3 | levels of autophagy marker LC3-II [1]: no detectable increase | γH2AX levels compared to IR alone [2]: approximately two-fold greater | median IdU tract length [3]: 2.18 μm | stalled replication forks (red tract only), of total replication forks ([3]; 40 μM during IdU pulse, mock 7.5 +/− 1%): 17 +/− 1%

Oc1ccc(-c2nc3c4cccnc4c4ncccc4c3[nH]2)cc1.[Ru+2].c1ccc2nc3c4cccnc4c4ncccc4c3nc2c1.c1ccc2nc3c4cccnc4c4ncccc4c3nc2c1 [Complex 2, [Ru(dppz)2(p-HPIP)]^2+]
generation of apoptosis marker cleaved caspase-3 [1]: no generation of the apoptosis marker cleaved caspase-3 | levels of autophagy marker LC3-II [1]: greater in cells treated with 2 at IC50 concentrations or greater compared to untreated | γH2AX levels compared to IR alone [2]: no such increase in γH2AX expression | median IdU tract length [3]: 6.24 μm | impact on replication fork progression ([3]; 40 μM during IdU pulse): negligible impact on replication fork progression

From PMC4997316, “A ruthenium polypyridyl intercalator stalls DNA replication forks, radiosensitizes human cancer cells and is enhanced by Chk1 inhibition” (Scientific Reports, 2016)
